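Interpolation was linear, between the two tested concentrations surrounding the appropriate level; five concentrations were tested over 48 hours in 96-well plates. TGI denotes the concentration required for complete inhibition of growth.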
Tests used:
Test in all cases: NCI tumour cell line growth inhibition, 48 h
A498 renal = system: A498 renal
A549 NSCLC = system: A549 NSCLC
CAKI-1 renal = system: CAKI-1 renal
CCRF-CEM leukemia = system: CCRF-CEM leukemia
COLO 205 colon = system: COLO 205 colon
DLD-1 colon = system: DLD-1 colon
DMS 114 small cell lung = system: DMS 114 small cell lung
DMS 273 small cell lung = system: DMS 273 small cell lung
EKVX NSCLC = system: EKVX NSCLC
HCC-2998 colon = system: HCC-2998 colon
HCT-116 colon = system: HCT-116 colon
HCT-15 colon = system: HCT-15 colon
HL-60(TB) leukemia = system: HL-60(TB) leukemia
HOP-18 NSCLC = system: HOP-18 NSCLC
HOP-62 NSCLC = system: HOP-62 NSCLC
HOP-92 NSCLC = system: HOP-92 NSCLC
HT29 colon = system: HT29 colon
IGROV1 ovarian = system: IGROV1 ovarian
K-562 leukemia = system: K-562 leukemia
KM12 colon = system: KM12 colon
KM20L2 colon = system: KM20L2 colon
LOX IMVI melanoma = system: LOX IMVI melanoma
M19-MEL melanoma = system: M19-MEL melanoma
MALME-3M melanoma = system: MALME-3M melanoma
MCF7 breast = system: MCF7 breast
MOLT-4 leukemia = system: MOLT-4 leukemia
NCI-H226 lung = system: NCI-H226 lung
NCI-H23 lung = system: NCI-H23 lung
NCI-H460 lung = system: NCI-H460 lung
NCI-H522 lung = system: NCI-H522 lung
NCI/ADR-RES ovarian = system: NCI/ADR-RES ovarian
OVCAR-3 ovarian = system: OVCAR-3 ovarian
OVCAR-4 ovarian = system: OVCAR-4 ovarian
OVCAR-5 ovarian = system: OVCAR-5 ovarian
OVCAR-8 ovarian = system: OVCAR-8 ovarian
P388 leukemia = system: P388 leukemia
P388/ADR leukemia = system: P388/ADR leukemia
RPMI-8226 leukemia = system: RPMI-8226 leukemia
RXF 393 renal = system: RXF 393 renal
SF-268 CNS = system: SF-268 CNS
SF-295 CNS = system: SF-295 CNS
SF-539 CNS = system: SF-539 CNS
SK-MEL-2 melanoma = system: SK-MEL-2 melanoma
SK-MEL-28 melanoma = system: SK-MEL-28 melanoma
SK-MEL-5 melanoma = system: SK-MEL-5 melanoma
SK-OV-3 ovarian = system: SK-OV-3 ovarian
SN12C renal = system: SN12C renal
SN12K1 renal = system: SN12K1 renal
SNB-19 CNS = system: SNB-19 CNS
SNB-75 CNS = system: SNB-75 CNS
SNB-78 CNS = system: SNB-78 CNS
SW-620 colon = system: SW-620 colon
U251 CNS = system: U251 CNS
UACC-257 melanoma = system: UACC-257 melanoma
UACC-62 melanoma = system: UACC-62 melanoma
UO-31 renal = system: UO-31 renal
XF 498 CNS = system: XF 498 CNS
786-0 renal = system: 786-0 renal
ACHN renal = system: ACHN renal
LXFL 529 NSCLC = system: LXFL 529 NSCLC
M14 melanoma = system: M14 melanoma
RXF-631 renal = system: RXF-631 renal
SR leukemia = system: SR leukemia
TK-10 renal = system: TK-10 renal

SMILES: C=C1C(=O)OCC2C(C(=O)O)=CC3C(C)C(C)=CC123 (stereo not drawn)
- TGI (A498 renal): 18.2 µM
- TGI (A549 NSCLC): 77.1 µM
- TGI (CAKI-1 renal): 62.6 µM
- TGI (CCRF-CEM leukemia): 42 µM
- TGI (COLO 205 colon): 32.9 µM
- TGI (DLD-1 colon): 45.7 µM
- TGI (DMS 114 small cell lung): 33.8 µM
- TGI (DMS 273 small cell lung): 59.6 µM
- TGI (EKVX NSCLC): 62.6 µM
- TGI (HCC-2998 colon): 29 µM
- TGI (HCT-116 colon): 35.5 µM
- TGI (HCT-15 colon): 43.8 µM
- TGI (HL-60(TB) leukemia): 26 µM
- TGI (HOP-18 NSCLC): 34.2 µM
- TGI (HOP-62 NSCLC): 31.4 µM
- TGI (HOP-92 NSCLC): 25.5 µM
- TGI (HT29 colon): 44.4 µM
- TGI (IGROV1 ovarian): 36.1 µM
- TGI (K-562 leukemia): 72.4 µM
- TGI (KM12 colon): 31.2 µM
- TGI (KM20L2 colon): 51.1 µM
- TGI (LOX IMVI melanoma): 27.9 µM
- TGI (M19-MEL melanoma): 54.6 µM
- TGI (MALME-3M melanoma): 17.6 µM
- TGI (MCF7 breast): 23.9 µM
- TGI (MOLT-4 leukemia): 29.6 µM
- TGI (NCI-H226 lung): 52.1 µM
- TGI (NCI-H23 lung): 25.7 µM
- TGI (NCI-H460 lung): 29.2 µM
- TGI (NCI-H522 lung): 8.18 µM
- TGI (NCI/ADR-RES ovarian): 27.3 µM
- TGI (OVCAR-3 ovarian): 31.3 µM
- TGI (OVCAR-4 ovarian): 20.6 µM
- TGI (OVCAR-5 ovarian): 66.3 µM
- TGI (OVCAR-8 ovarian): 73.5 µM
- TGI (P388 leukemia): 12.7 µM
- TGI (P388/ADR leukemia): 21.9 µM
- TGI (RPMI-8226 leukemia): 26.8 µM
- TGI (RXF 393 renal): 17.7 µM
- TGI (SF-268 CNS): 32.8 µM
- TGI (SF-295 CNS): 49.1 µM
- TGI (SF-539 CNS): 23.9 µM
- TGI (SK-MEL-2 melanoma): 15.1 µM
- TGI (SK-MEL-28 melanoma): 7.64 µM
- TGI (SK-MEL-5 melanoma): 27.3 µM
- TGI (SK-OV-3 ovarian): 79.5 µM
- TGI (SN12C renal): 23.6 µM
- TGI (SN12K1 renal): 29.6 µM
- TGI (SNB-19 CNS): 40.2 µM
- TGI (SNB-75 CNS): 44.1 µM
- TGI (SNB-78 CNS): 117 µM
- TGI (SW-620 colon): 40.9 µM
- TGI (U251 CNS): 38.6 µM
- TGI (UACC-257 melanoma): 46 µM
- TGI (UACC-62 melanoma): 11.8 µM
- TGI (UO-31 renal): 39.5 µM
- TGI (XF 498 CNS): 24.8 µM

SMILES: O=C1C(=O)N(c2ccc(Cl)cc2Cl)C(=O)C(=O)C1c1nc2ccccc2o1
- TGI (786-0 renal): > 100 µM
- TGI (A498 renal): > 100 µM
- TGI (A549 NSCLC): > 100 µM
- TGI (ACHN renal): > 100 µM
- TGI (CAKI-1 renal): > 100 µM
- TGI (CCRF-CEM leukemia): > 100 µM
- TGI (COLO 205 colon): > 100 µM
- TGI (DLD-1 colon): > 100 µM
- TGI (DMS 273 small cell lung): > 100 µM
- TGI (EKVX NSCLC): > 100 µM
- TGI (HCC-2998 colon): > 100 µM
- TGI (HCT-116 colon): > 100 µM
- TGI (HCT-15 colon): > 100 µM
- TGI (HL-60(TB) leukemia): > 100 µM
- TGI (HOP-18 NSCLC): > 100 µM
- TGI (HOP-62 NSCLC): > 100 µM
- TGI (HOP-92 NSCLC): > 100 µM
- TGI (HT29 colon): > 100 µM
- TGI (IGROV1 ovarian): > 100 µM
- TGI (K-562 leukemia): > 100 µM
- TGI (KM12 colon): > 100 µM
- TGI (KM20L2 colon): > 100 µM
- TGI (LXFL 529 NSCLC): > 100 µM
- TGI (M14 melanoma): > 100 µM
- TGI (M19-MEL melanoma): > 100 µM
- TGI (MALME-3M melanoma): > 100 µM
- TGI (MOLT-4 leukemia): > 100 µM
- TGI (NCI-H226 lung): > 100 µM
- TGI (NCI-H23 lung): > 100 µM
- TGI (NCI-H460 lung): > 100 µM
- TGI (NCI-H522 lung): > 100 µM
- TGI (OVCAR-3 ovarian): > 100 µM
- TGI (OVCAR-4 ovarian): > 100 µM
- TGI (OVCAR-5 ovarian): > 100 µM
- TGI (OVCAR-8 ovarian): > 100 µM
- TGI (RPMI-8226 leukemia): > 100 µM
- TGI (RXF-631 renal): > 100 µM
- TGI (SF-268 CNS): > 100 µM
- TGI (SF-295 CNS): > 100 µM
- TGI (SF-539 CNS): > 100 µM
- TGI (SK-MEL-2 melanoma): > 100 µM
- TGI (SK-MEL-28 melanoma): > 100 µM
- TGI (SK-MEL-5 melanoma): > 100 µM
- TGI (SK-OV-3 ovarian): > 100 µM
- TGI (SN12C renal): > 100 µM
- TGI (SNB-19 CNS): > 100 µM
- TGI (SNB-75 CNS): > 100 µM
- TGI (SNB-78 CNS): > 100 µM
- TGI (SR leukemia): > 100 µM
- TGI (SW-620 colon): > 100 µM
- TGI (TK-10 renal): > 100 µM
- TGI (U251 CNS): > 100 µM
- TGI (UACC-257 melanoma): > 100 µM
- TGI (UACC-62 melanoma): > 100 µM
- TGI (UO-31 renal): > 100 µM
- TGI (XF 498 CNS): > 100 µM
